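Growth conditions: 96-well plates. Treatment: test compound, 48 hours, 5 concentrations. Analysis: linear interpolation between bracketing concentrations; unreached endpoints set to highest concentration. TGI is the concentration that stops growth completely.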
Key:
Experiment in all cases: growth of human tumour cells (NCI), 48 h
[1] = tested on: HOP-62 NSCLC
[2] = tested on: SK-MEL-2 melanoma
[3] = tested on: SR leukemia
[4] = tested on: SF-295 CNS
[5] = tested on: OVCAR-5 ovarian
[6] = tested on: SNB-19 CNS
[7] = tested on: OVCAR-4 ovarian
[8] = tested on: DU-145 prostate
[9] = tested on: NCI-H460 lung
[10] = tested on: NCI-H522 lung
[11] = tested on: LOX IMVI melanoma
[12] = tested on: OVCAR-3 ovarian
[13] = tested on: HL-60(TB) leukemia
[14] = tested on: SK-MEL-28 melanoma
[15] = tested on: KM12 colon
[16] = tested on: MALME-3M melanoma
[17] = tested on: TK-10 renal
[18] = tested on: RXF 393 renal
[19] = tested on: SN12C renal
[20] = tested on: HOP-92 NSCLC
[21] = tested on: A549 NSCLC
[22] = tested on: HCT-15 colon
[23] = tested on: NCI-H226 lung
[24] = tested on: EKVX NSCLC
[25] = tested on: SF-268 CNS
[26] = tested on: COLO 205 colon
[27] = tested on: BT-549 breast
[28] = tested on: MDA-N
[29] = tested on: PC-3 prostate
[30] = tested on: K-562 leukemia
[31] = tested on: SW-620 colon
[32] = tested on: SNB-75 CNS
[33] = tested on: OVCAR-8 ovarian
[34] = tested on: NCI/ADR-RES ovarian
[35] = tested on: MDA-MB-435
[36] = tested on: U251 CNS
[37] = tested on: SK-OV-3 ovarian
[38] = tested on: T-47D breast
[39] = tested on: SF-539 CNS
[40] = tested on: HCT-116 colon
[41] = tested on: MOLT-4 leukemia
[42] = tested on: MDA-MB-231 breast
[43] = tested on: HCC-2998 colon
[44] = tested on: CAKI-1 renal
[45] = tested on: UO-31 renal
[46] = tested on: NCI-H23 lung
[47] = tested on: CCRF-CEM leukemia
[48] = tested on: A498 renal
[49] = tested on: MCF7 breast
[50] = tested on: SK-MEL-5 melanoma
[51] = tested on: HS 578T breast
[52] = tested on: RPMI-8226 leukemia
[53] = tested on: UACC-257 melanoma
[54] = tested on: ACHN renal
[55] = tested on: UACC-62 melanoma
[56] = tested on: 786-0 renal
[57] = tested on: HT29 colon
[58] = tested on: M14 melanoma
[59] = tested on: IGROV1 ovarian

For `CCOC(=O)c1c(N2CCCC2)[nH]c(=O)c(C(c2ccco2)c2c(O)c(C(=O)OCC)c(N3CCCC3)[nH]c2=O)c1O`, the TGI [1] was greater than 100 µM, the TGI [2] was greater than 100 µM and the TGI [3] was greater than 100 µM. The TGI [4] was greater than 100 µM, the TGI [5] was greater than 100 µM and the TGI [6] was greater than 100 µM. The TGI [7] was greater than 100 µM, the TGI [8] was greater than 100 µM and the TGI [9] was greater than 100 µM. For the same compound, the TGI [10] was greater than 100 µM, the TGI [11] was greater than 100 µM and the TGI [12] was greater than 100 µM. It also gave a TGI [13] greater than 100 µM, a TGI [14] greater than 100 µM and a TGI [15] greater than 100 µM. For the same compound, the TGI [16] was greater than 100 µM, the TGI [17] was greater than 100 µM and the TGI [18] was greater than 100 µM. It also gave a TGI [19] greater than 100 µM, a TGI [20] greater than 100 µM and a TGI [21] greater than 100 µM. The TGI [22] was greater than 100 µM, the TGI [23] was greater than 100 µM and the TGI [24] was greater than 100 µM. It also gave a TGI [25] greater than 100 µM, a TGI [26] greater than 100 µM and a TGI [27] greater than 100 µM. It also gave a TGI [28] greater than 100 µM, a TGI [29] greater than 100 µM and a TGI [30] greater than 100 µM. The TGI [31] was greater than 100 µM, the TGI [32] was 60.5 µM and the TGI [33] was greater than 100 µM. The TGI [34] was greater than 100 µM, the TGI [35] was greater than 100 µM and the TGI [36] was greater than 100 µM. For the same compound, the TGI [37] was greater than 100 µM, the TGI [38] was greater than 100 µM and the TGI [39] was greater than 100 µM. For the same compound, the TGI [40] was greater than 100 µM, the TGI [41] was greater than 100 µM and the TGI [42] was greater than 100 µM. The TGI [43] was greater than 100 µM, the TGI [44] was greater than 100 µM and the TGI [45] was greater than 100 µM. It also gave a TGI [46] greater than 100 µM, a TGI [47] greater than 100 µM and a TGI [48] greater than 100 µM. The TGI [49] was greater than 100 µM, the TGI [50] was greater than 100 µM and the TGI [51] was greater than 100 µM. The TGI [52] was greater than 100 µM, the TGI [53] was greater than 100 µM and the TGI [54] was greater than 100 µM. It also gave a TGI [55] greater than 100 µM, a TGI [56] greater than 100 µM and a TGI [57] greater than 100 µM. The TGI [58] was greater than 100 µM.

In the case of `O=C(/C=C/c1cc(O)c(O)cc1O)OCCc1ccccc1`, the TGI [1] was 75.4 µM, the TGI [2] was 47.2 µM and the TGI [3] was 30.6 µM. It also gave a TGI [4] greater than 82.3 µM, a TGI [5] greater than 59.2 µM and a TGI [6] greater than 100 µM. For the same compound, the TGI [7] was 31.8 µM, the TGI [8] was greater than 85.1 µM and the TGI [9] was greater than 100 µM. The TGI [10] was 4.74 µM, the TGI [11] was 32 µM and the TGI [12] was 15.7 µM. It also gave a TGI [13] of 3.73 µM, a TGI [14] of 39.3 µM and a TGI [15] greater than 100 µM. For the same compound, the TGI [16] was 28.2 µM, the TGI [17] was 17.6 µM and the TGI [18] was greater than 31.1 µM. It also gave a TGI [19] of 22.1 µM, a TGI [20] of 20.5 µM and a TGI [21] greater than 100 µM. The TGI [22] was 54.7 µM, the TGI [23] was greater than 100 µM and the TGI [24] was greater than 95.6 µM. The TGI [25] was 38.6 µM, the TGI [26] was 25.7 µM and the TGI [27] was 62.1 µM. It also gave a TGI [28] of 20.2 µM, a TGI [29] of 34.2 µM and a TGI [30] of 6.89 µM. For the same compound, the TGI [31] was 21.2 µM, the TGI [32] was greater than 100 µM and the TGI [33] was 22.9 µM. The TGI [34] was 71.2 µM, the TGI [35] was 48.9 µM and the TGI [36] was greater than 57.9 µM. For the same compound, the TGI [37] was 74.8 µM, the TGI [38] was 20.1 µM and the TGI [39] was 44.5 µM. The TGI [40] was greater than 58.4 µM, the TGI [41] was 11.7 µM and the TGI [42] was 38.3 µM. For the same compound, the TGI [43] was greater than 100 µM, the TGI [44] was 78.3 µM and the TGI [45] was 19.7 µM. For the same compound, the TGI [46] was 53.1 µM, the TGI [47] was 7.17 µM and the TGI [48] was 37.4 µM. It also gave a TGI [49] of 20.9 µM, a TGI [50] of 38.4 µM and a TGI [51] greater than 93.9 µM. The TGI [59] was 40.5 µM, the TGI [52] was greater than 46 µM and the TGI [53] was greater than 64.9 µM. The TGI [54] was 26.8 µM, the TGI [55] was 40.5 µM and the TGI [56] was 18.6 µM. It also gave a TGI [57] of 41.6 µM and a TGI [58] of 32.7 µM.

Reference: PubChem BioAssay (NCI)
